# Columns and labels:
# [1] = standard reference compound in deuterated methanol; cited from earlier work
# Description: For the determination of the singlet oxygen quantum yield (ΦΔ), deuterated methanol (CD3OD) was used since singlet oxygen has a relatively long lifetime in deuterated solvents. To confirm that the methanolic solutions of the conjugates and chlorin e6 at the concentrations studied were monomeric, absorption ...
# [2] = Singlet oxygen quantum yield by time-resolved 1270 nm phosphorescence in deuterated methanol; format: physicochemical; conditions: aerated deuterated methanol (CD3OD); 532 nm laser excitation; absorbance matched to Rose Bengal reference; zero-time intercept analysis; estimated experimental error +/- 0.06
# Procedure: For the singlet oxygen studies, absorption spectra of the compounds were measured using a Perkin-Elmer Lambda 25 UV/Vis spectrometer (Perkin-Elmer, Beaconsfield, UK) with quartz cuvettes. The singlet oxygen phosphorescence at 1270 nm was detected using time-resolved photon counting from aerated solutions in deuterated methanol (CD3OD) in quartz cuvettes. […] Integrated time-resolved phosphorescence traces were analysed using FluoFit software (PicoQuant GmbH, Berlin, Germany) to extract the singlet oxygen decay lifetime. […]
# [3] = tested on: human pharyngeal FaDu carcinoma cells; conditions: cited from earlier work
# Description: The lower uptake of the free chlorin is consistent with its lower PDT efficacy compared to the conjugates, as discussed below. […] Figure 3H and I show sequential images ...
# [4] = tested on: MC28 cells; experiment: Cellular uptake and subcellular localisation, confocal microscopy with LysoTracker Green; format: cell-based, rat; conditions: same concentration and image intensity scale as the conjugates
# Procedure: Cells were seeded in small Petri dishes, with a glass cover slip bottom window for use with an inverted microscope (Fluorodish, World Precision Inst. UK), and allowed to attach overnight. Cells were incubated for 24 h with the compounds (2.5 µM). Afterwards, culture medium was removed and replaced with fresh medium containing Lysotracker Green (100 nM) for 30 min before microscope imaging. Cells were washed 2 times with PBS and incubated with drug-free/phenol red-free medium for confocal imaging using an Olympus Laser scanning confocal microscope (FluoView FV1000, 60x magnification, NA 1.20, Olympus UK Ltd, Essex, UK). Fluorescence from the photosensitiser was recorded within the range of 620–720 nm using a 405 nm laser for the excitation. For LysoTracker Green, cells were illuminated at 488 nm and the fluorescence signal was recorded at 500–550 nm. Colocalisation analysis and image processing of the 16-bit images were performed with ImageJ software.
# [5] = tested on: MC28 cells; experiment: In vitro PDT phototoxicity, MTT assay; format: cell-based, rat; conditions: 3.2 µM, 18 h incubation, 5 min illumination, 420 nm, 7 mW cm-2, MTT 48 h after light, three independent experiments
# [6] = cited from earlier work
# Description: The rationale for selecting chlorin e6 as the photosensitiser for this study on PCI was based on its favourable photosensitising properties but also on its poor lysosomal localisation[40] and bioavailability. The cellular uptake and membrane transport of chlorin e6 has been studied in detail in relation to its acid-base properties. The structure of chlorin e6 contains three adjacent carboxylic acid functions with pKa7.9–8.3[47]which are thus only partially ionised at physiological pH leading to poor aqueous solubility, which complicates systemic administration. At lower pH, as is typical for t ...
# [7] = in dimethylformamide; cited from earlier work
# [8] = Absorption spectra as a function of concentration (test for aggregation); format: physicochemical; conditions: methanolic solution; up to 8 μM; 398 nm for conjugates, 399 nm for chlorin e6
# Procedure: For the determination of the singlet oxygen quantum yield (ΦΔ), deuterated methanol (CD3OD) was used since singlet oxygen has a relatively long lifetime in deuterated solvents. To confirm that the methanolic solutions of the conjugates and chlorin e6 at the concentrations studied were monomeric, absorption spectra were recorded as a function of concentration. […] The singlet oxygen quantum yields in deuterated methanol were measured using a standard reference compound, Rose Bengal (ΦΔ = 0.76)[43] using matched reference solution absorbances at the laser wavelength of 532 nm. Using standard zero-point intercept analysis of the singlet oxygen decays, the quantum yield of chlorin e6 was calculated as 0.67, which is in good agreement with the literature, as reviewed by Redmond et al.[43]. Morjzisova et al. reported the quantum yields of several chlorins in dimethylformamide and measured a value of 0.63 for chlorin e6, and observed a similar value for another clinical chlorin PDT photosensitiser, mTHPC (0.68) and disulfonated tetraphenyl chlorin (0.66)[44].
# For the singlet oxygen studies, absorption spectra of the compounds were measured using a Perkin-Elmer Lambda 25 UV/Vis spectrometer (Perkin-Elmer, Beaconsfield, UK) with quartz cuvettes. […]
# [9] = tested on: KB cells; experiment: In vitro PDT/PCI phototoxicity with saporin, MTT assay; format: cell-based, human; conditions: saporin 20 nM, without photosensitiser
compound,measurement,setting,value
O=C([O-])c1c(Cl)c(Cl)c(Cl)c(Cl)c1-c1c2cc(I)c(=O)c(I)c-2oc2c(I)c([O-])c(I)cc12.[Na+].[Na+] [Rose Bengal],singlet oxygen quantum yield (ΦΔ) of reference standard,[1],0.76
C=Cc1c(C)c2cc3nc(c(CC(=O)O)c4[nH]c(cc5nc(cc1[nH]2)C(C)=C5CC)c(C)c4C(=O)O)[C@@H](CCC(=O)O)[C@@H]3C [chlorin e6],singlet oxygen quantum yield (ΦΔ),[2],0.67
same,cellular uptake of free chlorin e6 compared to dendrimer conjugates of chlorin e6,[3],an order of magnitude lower
same,"cellular uptake, intracellular fluorescence relative to the conjugates",[4],much lower fluorescence
same,loss of viability (PDT),[5],less than 20%
same,pKa of the three carboxylic acid functions,[6],7.9–8.3
same,singlet oxygen quantum yield,[7],0.63
same,peak absorbance of the Soret band versus concentration (monomeric or aggregated),[8],linear
Oc1cccc(-c2c3nc(c(-c4cccc(O)c4)c4ccc([nH]4)c(-c4cccc(O)c4)c4nc(c(-c5cccc(O)c5)c5ccc2[nH]5)CC4)C=C3)c1 [mTHPC],singlet oxygen quantum yield,[7],0.68
disulfonated tetraphenyl chlorin,singlet oxygen quantum yield,[7],0.66
saporin,"reduction in viability, saporin alone",[9],< 20%
